Key:
[1] = buffer, pH 7.4
[2] = Drug metabolism in po dosed NMRI mouse plasma assessed as release of 3-methoxyaniline; assay type: ADME, organism-based; conditions: in vivo
[3] = Drug metabolism in mouse plasma assessed as release of 3-methoxyaniline measured after 5 hrs; assay type: ADME, cell-free
[4] = mouse, in vivo, po, 10 mg/kg, 8 h
[5] = mouse, in vivo, po, 10 mg/kg, 24 h
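Wherever logD is given: logD at pH 7.4 derived from a chromatographic hydrophobicity index measured by reversed-phase HPLC.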

logD [1] | Compound | further results
2.3 | COc1cccc(NC(=O)c2nnn(Cc3ccc(C#N)cc3)c2N)c1 | 
0.6 | COc1cccc(NC(=O)c2nnn(CC3CCNCC3)c2N)c1 | 
2.1 | Cc1noc(C)c1-c1noc(-c2nnn(Cc3ccc(CN4CCOCC4)cc3)c2N)n1 | 
2.1 | COc1cccc(NC(=O)c2nnn(Cc3ccc(CN4CCOCC4)cc3)c2N)c1F | 
2.6 | COc1cccc(NC(=O)c2nnn(Cc3ccccc3)c2N)c1 | 
2 | Nc1c(C(=O)Nc2ccccc2)nnn1Cc1ccc(CN2CCOCC2)cc1 | 
1 | COc1nnccc1-c1noc(-c2nnn(Cc3ccc(CN4CCOCC4)cc3)c2N)n1 | 
0.9 | Nc1c(-c2nc(C3CCC(O)CC3)no2)nnn1Cc1ccc(CN2CCOCC2)cc1 (stereo not given) | 
2.1 | COc1ccccc1-c1noc(-c2nnn(Cc3ccc(CN4CCOCC4)cc3)c2N)n1 | 
1.1 | COc1cnccc1-c1noc(-c2nnn(Cc3ccc(CN4CCOCC4)cc3)c2N)n1 | 
 | COc1cccc(NC(=O)c2nnn(Cc3ccc(CN4CCOCC4)cc3)c2N)c1 | Drug metabolism [2]: Metabolite_Notdetected; Drug metabolism [3]: Metabolite_Notdetected
3.4 | COc1cccc(NC(=O)c2nnn(Cc3ccc(C(C)C)cc3)c2N)c1 | AUC [4]: 3200 ng·min/mL; Cmax [5]: 17 ng/mL
3.2 | COc1cccc(NC(=O)c2nnn(Cc3ccc(C4CC4)cc3)c2N)c1 | 
2.1 | COc1cc(NC(=O)c2nnn(Cc3ccc(CN4CCOCC4)cc3)c2N)nc(OC)n1 | AUC [4]: 300000 ng·min/mL; Cmax [5]: 1300 ng/mL
2.9 | COc1cccc(NC(=O)c2nnn(CC3CCN(C(=O)OC(C)(C)C)CC3)c2N)c1 | 
1.7 | COc1ncccc1-c1noc(-c2nnn(Cc3ccc(CN4CCOCC4)cc3)c2N)n1 | AUC [4]: 190000 ng·min/mL; Cmax [5]: 1300 ng/mL
1.2 | COc1cccc(NC(=O)c2nnn(CC3CCN(C(C)=O)CC3)c2N)c1 | 

logD [1] | Compound | further results
1 | COc1cccnc1-c1noc(-c2nnn(Cc3ccc(CN4CCOCC4)cc3)c2N)n1 | 
2 | COC1CCCC(NC(=O)c2nnn(Cc3ccc(CN4CCOCC4)cc3)c2N)C1 (stereo not given) | 
2.2 | COc1cc(NC(=O)c2nnn(Cc3ccc(CN4CCOCC4)cc3)c2N)cc(OC)c1 | AUC [4]: 370000 ng·min/mL; Cmax [5]: 1600 ng/mL
1.4 | COc1cccc(NC(=O)c2nnn(Cc3ccncc3)c2N)c1 | 
2 | Cc1cccc(NC(=O)c2nnn(Cc3ccc(CN4CCOCC4)cc3)c2N)c1 | 
2 | COc1ccnc(NC(=O)c2nnn(Cc3ccc(CN4CCOCC4)cc3)c2N)c1 | 
2.6 | Nc1c(-c2nc(-c3ccccc3)no2)nnn1Cc1ccc(CN2CCOCC2)cc1 | 
2 | COc1cccc(N(C)C(=O)c2nnn(Cc3ccc(CN4CCOCC4)cc3)c2N)c1 | 
3.6 | COc1cccc(NC(=O)c2nnn(Cc3ccc(OC(F)(F)F)cc3)c2N)c1 | AUC [4]: 2300 ng·min/mL; Cmax [5]: 13 ng/mL
2 | Nc1c(C(=O)NC23CC4CC(CC(C4)C2)C3)nnn1Cc1ccc(CN2CCOCC2)cc1 | 
2.4 | COc1cc(F)cc(NC(=O)c2nnn(Cc3ccc(CN4CCOCC4)cc3)c2N)c1 | 
3.9 | COc1cccc(NC(=O)c2nnn(C(C)c3ccc(C(C)(C)C)cc3)c2N)c1 (stereo not given) | 
2.4 | COc1cccc(NC(=O)c2nnn(Cc3ccc(-n4cccn4)cc3)c2N)c1 | 
1.3 | COc1cccc(NC(=O)c2nnn(Cc3ccc([S+](C)[O-])cc3)c2N)c1 (stereo not given) | 
2.1 | COc1cc(NC(=O)c2nnn(Cc3ccc(CN4CCOCC4)cc3)c2N)ccc1F | 
1.3 | Nc1c(-c2nc(C3CCOCC3)no2)nnn1Cc1ccc(CN2CCOCC2)cc1 | 
2 | COc1cccc(NC(=O)c2nnn(Cc3cc(C)on3)c2N)c1 | 
